The source of these data is patent US6579868B1, “Purine derivatives and adenosine A2 receptor antagonists serving as preventives/remedies for diabetes” (Eisai Co., Ltd., priority 1998, dated 2003).

Data set [1] has as its system Hepatic cells of primary culture of rats. Put plainly: Suppressing action to NECA-stimulated saccharogenesis (glucose release) in primary cultured rat hepatic cells. The note with it: 0.1 μM NECA, 1 h incubation, glucose released into medium. In kind it is cell-based. As for the experimental part:
Hepatic cells were separated by a collagenase perfusion method from liver of male rats of Wistar strain and subjected to a primary culture in a William's Medium E containing 5% of calf serum, 10^−6 M of insulin, 10^−7 M of dexamethasone and 30 ng/ml of pertussal toxin. After one day, the hepatic cells were washed with a Krebs-Ringer Bicarbonate buffer (pH 7.4 (KRB)) containing 10 mM of HEPES and 0.1% of bovine serum albumin and incubated with KRB at 37° C. After 30 minutes, 0.1 μM of NECA (N-ethylcarboxamide adenosine) and a test compound were added thereto at the same time, the mixture was incubated for additional one hour and the amount of glucose released into an incubation medium was measured.

Data set [2] deals with spontaneous diabetic mice (KK-A^y/Ta Jcl). As to the kind of experiment: Action to hyperglycemia of spontaneous diabetic mice (KK-A^y/Ta Jcl), single oral administration. Format: in vivo, mouse. The note with it: 5 h. As for the experimental part:
Animals: Five male KK-A^y/Ta Jcl mice for each group (purchased from Nippon Clair)
Preparation and Administration of Test Compound: A test compound in a dose as shown in Table 2 was suspended in a 0.5% aqueous solution of methyl cellulose and was orally administered in a dose of 10 ml/kg.
Collection of Blood Samples and Determination of Blood Sugar: Blood was collected from tail vein immediately before administration of the test compound and also five hours after the administration and blood sugar was determined.
Method: Tail vein of a mouse was injured by a razor without an anesthetization to bleed slightly. The blood (15 μl) was collected and immediately mixed with 135 μl of a 0.6 M perchloric acid. Glucose in the supernatant obtained by a centrifugal separation (at 1500 g for 10 minutes at 4° C. using a cooling centrifuge GS-6KR of Beckmann) was determined by a Glucose CII Test Wako (Wako Pure Chemicals).
The result is shown in terms of “(% ratio of the blood sugar after 5 hours from the administration to the blood sugar before the administration)±(standard error)”. The data were subjected to a one-way layout analysis of variance and then subjected to a multiple comparison of a Dunnett type. The case where p<0.05 was judged to be that a significant difference was available.
Animals: Five male KK-A^y/Ta Jcl mice for each group (introduced from Nippon Clair)
Preparation and Administration of Test Compound: A test compound in a dose shown in Table 6 was suspended in a 0.5% aqueous solution of methyl cellulose and was orally administered in a dose of 10 ml/kg.
Method: Tail vein of mouse was injured by a razor without an anesthetization to bleed slightly. The blood (15 μl) was collected and immediately mixed with 135 μl of a 0.6 M perchloric acid. Glucose in the supernatant obtained by a centrifugal separation (at 1500 g for 10 minutes at 4° C. using a cooling centrifuge GS-6KR of Beckmann) was determined by a Glucose CII Test Wako (Wako Pure Chemicals).
The result is shown in terms of “(% ratio of the blood sugar after 5 hours from the administration to the blood sugar before the administration)±(standard error)”. The data were subjected to a one-way layout analysis of variance and then subjected to a multiple comparison of Dunnett type. The case where p<0.05 was judged that a significant difference was available.

The target of data set [3] is T1, Human adenosine A1 receptor (Homo sapiens, UniProt P30542).
T1 construct: expressed in transfected cells; host or cells: CHOK1 cells (membrane specimen)
T1 sequence (P30542 1-326): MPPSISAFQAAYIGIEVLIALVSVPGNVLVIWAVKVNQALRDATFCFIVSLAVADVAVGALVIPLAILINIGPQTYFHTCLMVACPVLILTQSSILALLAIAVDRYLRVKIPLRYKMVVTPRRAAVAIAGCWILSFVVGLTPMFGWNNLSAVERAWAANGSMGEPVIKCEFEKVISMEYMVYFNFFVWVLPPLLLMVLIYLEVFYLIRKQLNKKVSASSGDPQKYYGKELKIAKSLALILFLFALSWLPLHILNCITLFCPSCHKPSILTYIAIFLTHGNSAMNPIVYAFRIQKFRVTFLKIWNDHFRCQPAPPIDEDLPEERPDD
As to the kind of experiment: Adenosine A1 receptor binding experiment (3H-CCPA). As to conditions: human A1 receptor expressed in CHOK1 membranes. As for the experimental part:
Human adenosine A1 receptor cDNA was subjected to an over-expression in CHOK1 cells and its membrane specimen was suspended in an incubation buffer (20 mM HEPES, 10 mM MgCl2 and 100 mM NaCl; pH 7.4) to make the concentration 66.7 μg/ml. To 0.45 ml of this membrane specimen were added 0.025 ml of tritium-labeled chlorocyclopentyl adenosine (60 nM ^3H-CCPA; 30 Ci/mmol) and 0.025 ml of the compound to be tested. The solution of the compound to be tested was prepared in such a manner that, firstly, the compound was dissolved in DMSO to make 20 mM concentration and then successively diluted each 10-fold using an incubation buffer. The mixture was allowed to stand at 30° C. for 120 minutes, subjected to a quick suction on a glass fiber filter (GF/B; manufactured by Whatman) and immediately washed with 5 ml of ice-cooled 50mM Tris-HCl buffer twice. After that, the glass fiber filter was transferred to a vial bottle, a scintillator was added and the radioactivity on the filter was measured by a liquid scintillation counter. Calculation of the inhibition rate of the test compound to the receptor bond (^3H-CCPA) was carried out by the following expression and, based upon that, IC50 was calculated.
Inhibition Rate (%)=[1−{(Binding amount in the presence of drug-Non-specific binding amount)/(Total binding amount-Non-specific binding amount)}]×100
Total binding amount is a ^3H-CCPA binding radioactivity in the absence of the test compound.
Non-specific binding amount is a ^3H-CCPA binding radioactivity in the presence of 100 μM of RPIA.
Binding amount in the presence of drug is a ^3H-CCPA binding radioactivity in the presence of the test compound of various concentrations.
The inhibition constant (Ki value) in Table was calculated from Cheng-Prusoff's expression.

Counter-ions that a name gives are not always drawn.

Turning to `Cn1c(-c2cccc(F)c2)nc2c(N)nc(C#CC3(O)CCCC3)nc21` [Example 19, 1-{2-[6-Amino-8-(3-fluorophenyl)-9-methyl-9H-2-purinyl]-1-ethynyl}-1-cyclopentanol Sulfate], the IC50 (commonly the point on the concentration scale where inhibition reaches its midpoint) in data set [1] was 470 nM.

As for `CCCn1c(-c2cccc(F)c2)nc2c(N)nc(C#CC(C)(C)O)nc21.Cl` [Example 171, 4-[6-Amino-8-(3-fluorophenyl)-9-propyl-9H-2-purinyl]-2-methyl-3-butyn-2-ol Hydrochloride], the melting point (in general, the temperature of the solid-liquid transition) was in the range of 167 to 168 °C. Besides, in data set [1], the IC50 was 1010 nM.

With `CCn1c(-c2cccc(F)c2)nc2c(N)nc(CCC(O)(CC)CC)nc21` [Example 235, 1-[6-Amino-9-ethyl-8-(3-fluorophenyl)-9-2-purinyl]-3-ethyl]-3-pentanol Hydrochloride], the IC50 in data set [1] came to 1270 nM.

For the compound `Cl.Cn1c(-c2cccc(F)c2)nc2c(N)nc(C#CC(C)(C)O)nc21` [Example 64, 4-[6-Amino-8-(3-fluorophenyl)-9-methyl-9H-2-purinyl]-2-methyl-3-butyn-2-ol Hydrochloride], the “% ratio of the blood sugar after 5 hours from the administration to the blood sugar before the administration ± standard error” value in data set [2] (Table 2-2, 10 mg/kg oral, solvent group 67.6 ± 2.4) is reported as 42.3 ± 4.8%.

On to `Cn1c(-c2cccc(F)c2)nc2c(N)nc(C#CC(C)(C)O)nc21` [Example 64 (sulfate), Hydrochloride], for which, in data set [1], the IC50 came out at 730 nM.

`CN(C)c1ccc(-n2c(-c3cccc(F)c3)nc3c(N)nc(C#CC4(O)CCCCC4)nc32)cc1` [Example 3, 1-{2-[6-Amino-9-[4-(dimetylamino)phenyl]-8-(3-fluorophenyl)-9H-2-purinyl]-1-ethynyl}-1-cyclohexanol Dihydrochloride]: in data set [1], the IC50 stood at 130 nM.

`CCn1c(-c2cccc(F)c2)nc2c(N)nc(C#CC3(O)CCC3)nc21.Cl` [Example 8, 1-{2-[6-Amino-9-ethyl-8-(3-fluorophenyl)-9H-2-purinyl]-1-ethynyl}-1-cyclobutanol Hydrochloride] showed a melting point of 160 to 163 °C. Moreover, the IC50 in data set [1] was 490 nM. Further, the “% ratio of the blood sugar after 5 hours from the administration to the blood sugar before the administration ± standard error” value in data set [2] (Table 2-1, 10 mg/kg oral, solvent group 72.4 ± 4.4) is listed as 47.8 ± 4.8%.

As to `CCn1c(-c2cccc(F)c2)nc2c(N)nc(/C=C/C(C)(C)O)nc21.Cl` [Example 210, (E)-4-[6-Amino-9-ethyl-8-(3-fluorophenyl)-9H-2-purinyl]-2-methyl-3-buten-2-ol Hydrochloride], the IC50 in data set [1] stood at 520 nM. Also, in data set [2] (Table 2-3, 10 mg/kg oral, solvent group 70.7 ± 4.6), the “% ratio of the blood sugar after 5 hours from the administration to the blood sugar before the administration ± standard error” value amounted to 51.5 ± 4.6%.

With `Cn1c(-c2cccc(F)c2)nc2c(N)nc(C#CC3(O)CCCCC3)nc21` [Example 31, 1-{2-[6-Amino-8-(3-fluorophenyl)-9-methyl-9H-2-purinyl]1-ethynyl}-1-cyclohexanol Hydrochloride], in data set [1], the IC50 is 130 nM.

Compound `Cl.Cn1c(-c2cccc(F)c2)nc2c(N)nc(/C=C/C3(O)CCC3)nc21` [Example 215, 1-[(E)-[6-Amino-8-(3-fluorophenyl)-9-methyl-9H-2-purinyl]-1-ethenyl]-1-cyclobutanol Hydrochloride] yielded a melting point of 181 to 184 °C. Further, in data set [1], the IC50 amounted to 220 nM.

`CCn1c(-c2cccc(F)c2)nc2c(N)nc(C#CC3(O)CCCC3)nc21.Cl` [Example 133, 1-{2-[6-Amino-9-ethyl-8-(3-fluorophenyl)-9H-2-purinyl]-1-ethynyl}-1-cyclopentanol Hydrochloride] yielded a melting point of 188 to 191 °C. Moreover, the IC50 in data set [1] came to 200 nM.

For the compound `CCCn1c(-c2cccc(F)c2)nc2c(N)nc(C#CC3(O)CCCC3)nc21.Cl` [Example 169, 1-{2-[6-Amino-8-(3-fluorophenyl)-9-propyl-9H-2-purinyl]-1-ethynyl}-1-cyclopentanol Hydrochloride], the melting point lay in the range of 198 to 200 °C. Moreover, the IC50 in data set [1] is 480 nM.

For the compound `Cl.Cn1c(-c2cccc(F)c2)nc2c(N)nc(/C=C/C3(O)CCCC3)nc21` [Example 208, 1-[(E)-2-[6-Amino-8-(3-fluorophenyl)-9-methyl-9H-2-purinyl]-1-ethenyl]-1-cyclopentanol Hydrochloride], the melting point is more than 290 °C. In addition, the IC50 in data set [1] came to 270 nM.

`Cl.Cn1c(-c2cccc(F)c2)nc2c(N)nc(C#CC3(O)CCC3)nc21` [Example 89, 1-{2-[6-Amino-8-(3-fluorophenyl)-9-methyl-9H-2-purinyl]-1-ethynyl}-1-cyclobutanol Hydrochloride] yielded a melting point of 198 to 199 °C. In addition, the IC50 in data set [1] was found to be 430 nM. The “% ratio of the blood sugar after 5 hours from the administration to the blood sugar before the administration ± standard error” value in data set [2] (Table 2-2, 30 mg/kg oral, solvent group 67.6 ± 2.4) turned out to be 38.3 ± 4.4%.

Turning to `Cn1c(-c2cccc(F)c2)nc2c(N)nc(C#CC3(O)CCCC3)nc21` [drawing 260], in data set [3], the Ki – broadly, the dissociation constant of the complex between target and ligand, obtained from inhibition or displacement – was determined as 0.019 µM.

On to `CCCn1c(=O)c2c(nc(/C=C/c3ccc(OC)c(OC)c3)n2C)n(CCC)c1=O` [drawing 263], for which the Ki in data set [3] was more than 10 µM.

For the compound `CCn1c(=O)c2c(nc(/C=C/c3ccc(OC)c(OC)c3)n2C)n(CC)c1=O`, the Ki in data set [3] was more than 10 µM.

`CCCn1c(-c2cccc(F)c2)nc2c(N)nc(C#CC3(O)CCC3)nc21.Cl` [Example 170, 1-{2-[6-Amino-8-(3-fluorophenyl)-9-propyl-9H-2-purinyl]-1-ethynyl}-1-cyclobutanol Hydrochloride] came in with a melting point of 144 to 146 °C. Besides, the IC50 in data set [1] is 500 nM.

`CCn1c(-c2cc(F)cc(F)c2)nc2c(N)nc(C#CC(O)(CC)CC)nc21.Cl`: the melting point lay in the range of 204 to 205 °C.

In turn, `CC(O)C#Cc1nc(N)c2nc(-c3ccco3)n(C)c2n1` (stereo not shown) [Example 23, 4-[6-Amino-8-(2-furyl)-9-methyl-9H-2-purinyl]-3-butyn-2-ol] returned a melting point of 155 to 158 °C.
